Measurements reported in patent US20230035127A1, “CULTURE AND DIFFERENTIATION OF PLURIPOTENT STEM CELLS” (University of Maryland, College Park, priority 2021, published 2023).
Where “and” joins values, the source holds several entries; their conditions need not be identical. Equal values may be shown once.

Legend:
IMR90-1 human iPSCs = assay: 3D cardiac differentiation of IMR90-1 iPSCs: beating cardiac spheroids; type: cell-based; settings: for percentage of beating IMR90-1 cardiac spheroids: 10 μM RI
Protocol: Another commonly utilized iPSC line (IMR90-1) was tested to confirm that the improved cardiac differentiation of iPSCs with low RI for 3D culture before differentiation is not because of the eiPSCs used. The beating of the resultant IMR90-1 cardiac spheroids peaked at ˜98% on day 7.5 with the OBT being synchronized within ˜1 day for the 1 μM RI group (FIG. 19A). […] This was consistent with the flow cytometry data of the cells in the cardiac spheroids collected on day 12.5, showing that 91% and 32% of the cells were positive for the cardiac-specific protein cTnT (that are crucial for beating) in the 1 and 10 μM RI groups, respectively (FIG. 19B-C). Furthermore, cells in the cardiac spheroids that were positive for neural-specific maker MUSASHI were negligible in the 1 μM RI group, while ˜20% cells in the cardiac spheroids from the 10 μM RI group were MUSASHI positive (FIG. 19B-C).
(§1) To obtain 3D iPSC spheroids, the iPSC colonies under 2D culture at ˜80% confluence were treated with Versene for 2 min, rinsed with PBS, and further detached from the substrate by gentle pipetting. The detached iPSCs were re-suspended in mTeSR1 with Rock inhibitor (Y27632) at 0, 1, 5, or 10 μM. Afterward, the medium was supplemented with 0.35% (v/v) methylcellulose. The cell suspension (12 ml) containing ˜4×10^6 cells was pushed through a cell strainer with 100 μm mesh size. Later, the suspension of iPSC clumps was transferred into a petri dish (diameter: 10 cm) for culture in a humidified incubator at 37° C. and 5% CO2 for 2 days, during which the 2D iPSC clumps grew into 3D iPSC spheroids. Then, the medium was changed to mTeSR1 (supplemented with 0.35% methylcellulose) with no rock inhibitor, to further culture for 2 days before cardiac differentiation. To determine the number of cells per eiPSC spheroid, roughly equal numbers of the spheroids from either the 1 or 10 μM RI group were pooled together and trypsinized to dissociate the cells. The dissociated cells were then resuspended in 1.4 ml of the aforementioned iPSC maintenance medium and the cell number was counted using a hemocytometer. Three independent runs with 282, 260, and 256 spheroids for the 1 μM RI group and 273, 298, and 286 spheroids for the 10 μM RI group were conducted.
The eiPSC spheroids obtained after 4 days of culture on day 0 were induced into mesoderm by up-regulation of the Wnt signaling pathway using 8 μM CHIR99021 and 2 μM GSK inhibitor 6-bromoindirubin-3′-oxime (BIO) in the mesoderm induction medium for 1 day. The mesoderm induction medium was a mixture of DMEM/F12 and α-MEM (v/v, 1:1), containing 2% Knockout Serum Replacement (KOSR), 1 mM L-glutamine, 1% MEM non-essential amino acids (NEAA), and 0.1 mM β-mercaptoethanol. […]

human eiPSCs = assay: 3D cardiac differentiation of eiPSC spheroids: percentage of beating cardiac spheroids and outset beating time; type: cell-based; settings: for beating efficiency of 3D cardiac differentiation: PSCs
Protocol: Cardiac differentiation of the 3D eiPSC spheroids was conducted by modulating the canonical Wnt signaling pathway with agonists and antagonists sequentially, which has also been used for differentiation of human PSCs into cardiomyocytes under 2D culture. Two Wnt agonists, CHIR99021 (8 μM) and 6-bromoindirubin-3′-oxime (BIO, 2 μM), were supplemented into the culture medium on day 0, to up-regulate the Wnt signaling and induce iPSC differentiation into mesoderm for 1 day. On day 1, two Wnt antagonists, XAV939 (10 μM) and KY02111 (10 μM), were used to suppress the Wnt signaling for inducing cardiac commitment of the mesoderm cells in the following 6 days to obtain cardiac spheroids. Afterward, the cardiac spheroids were cultured in pure cardiac maintenance medium for maturation until day 13.5. […] In other words, the outset beating time (OBT) of the cardiac spheroids was synchronized to be within ˜24 h for the 1 μM RI group. No significant change in the beating percentage from day 7.5 to day 13.5 was observed. In contrast, in the 10 μM RI group, only ˜8% and ˜44% of cardiac spheroids beat on days 6.5 and 13.5, respectively (FIG. 4A, on day 13.5). […] Therefore, the OBT ranges over at least a week, indicating high heterogeneity of the cardiac spheroids in the 10 μM RI group as the beating is a direct and visible indicator of functional maturity of the cardiac spheroids.
as §1
The eiPSC spheroids obtained after 4 days of culture on day 0 were induced into mesoderm by up-regulation of the Wnt signaling pathway using 8 μM CHIR99021 and 2 μM GSK inhibitor 6-bromoindirubin-3′-oxime (BIO) in the mesoderm induction medium for 1 day. The mesoderm induction medium was a mixture of DMEM/F12 and α-MEM (v/v, 1:1), containing 2% Knockout Serum Replacement (KOSR), 1 mM L-glutamine, 1% MEM non-essential amino acids (NEAA), and 0.1 mM β-mercaptoethanol. After 1 day, the spheroids were induced for cardiac commitment by down-regulating the Wnt signaling pathway using 10 μM KY02111 and 10 μM XAV939 in the cardiac maintenance medium for 6 days with the medium being changed every other day. The cardiac maintenance medium was a mixture of RPMI1640 and α-MEM (v/v, 1:1) containing 5% fetal bovine serum (FBS). Starting from day 8, the cardiac maintenance medium without KY02111 and XAV939 was used, and it was changed every other day for cardiac maturation. Images and videos of the resultant cardiac spheroids were taken using the Zeiss LSM 710 microscope before medium change.

C[C@@H](N)[C@H]1CC[C@H](C(=O)Nc2ccncc2)CC1.Cl.Cl (relative stereo) [RI, (+)-(R)-trans-4-(1-aminoethyl)-N-(4-pyridyl) cyclo-hexanecarboxamide dihydrochloride]
outset beating time (OBT) synchronized within (IMR90-1 human iPSCs; 1 μM RI): ≤ 1 days
time within which cardiac spheroids start to beat (IMR90-1 human iPSCs; 1 μM RI): ≤ 24 h
percentage of beating IMR90-1 cardiac spheroids (IMR90-1 human iPSCs; day 7.5): 11.5%
percentage of beating IMR90-1 cardiac spheroids (IMR90-1 human iPSCs; in a week, day 13.5): 34.1%
beating efficiency of 3D cardiac differentiation (human eiPSCs; 1 μM RI, in about 7 days): more than 95%
percentage of beating cardiac spheroids (human eiPSCs; 1 μM RI, day 6.5): ~48%
percentage of beating cardiac spheroids (human eiPSCs; 5 μM RI, day 9.5): ~61%
beating efficiency of 3D cardiac differentiation (human eiPSCs; 10 μM RI, in 14 days): less than 50%
outset beating time (OBT) (human eiPSCs; 10 μM RI, day 6-6.5 to day 13.5): more than 7 days
percentage of beating cardiac spheroids (human eiPSCs; 10 μM RI, day 6.5): ~8%
percentage of beating cardiac spheroids (human eiPSCs; 10 μM RI, day 13.5, dihydrochloride): ~44% and 44.3%
